Source: patent US11046680B1, “Heteroaryl-substituted triazoles as APJ receptor agonists” (priority 2016, dated 2021)

Biological target: human APJ receptor (Homo sapiens (Human), UniProt P35414)
Assay: biochemical
Assay type: biochemical
Details: [35S]GTPγS binding, CHO membranes expressing human APJ receptor; read-out: Activity hAPJ SPA EC50 IP
Summary of the method: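 Membranes of a stable CHO line carrying human APJ (pFLAG-CMV-3) were used in a GTPγS binding format; buffer GDP, MgCl2 and NaCl were optimized, and plates were read after 90 min at RT.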

Sequence of human APJ receptor (P35414 whole entry): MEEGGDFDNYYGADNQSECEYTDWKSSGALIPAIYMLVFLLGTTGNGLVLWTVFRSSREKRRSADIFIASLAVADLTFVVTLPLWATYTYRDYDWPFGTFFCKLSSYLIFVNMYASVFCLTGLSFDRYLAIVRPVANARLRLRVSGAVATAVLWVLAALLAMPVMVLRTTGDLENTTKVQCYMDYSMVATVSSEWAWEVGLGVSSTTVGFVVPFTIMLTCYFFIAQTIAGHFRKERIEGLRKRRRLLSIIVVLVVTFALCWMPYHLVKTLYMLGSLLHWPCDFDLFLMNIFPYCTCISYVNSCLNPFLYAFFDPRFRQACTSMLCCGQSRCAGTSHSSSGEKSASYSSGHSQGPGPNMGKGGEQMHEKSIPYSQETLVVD

Row | SMILES | EC50
1 | COc1cccc(OC)c1-n1c(NS(=O)(=O)CCc2ccc(Cl)cc2)nnc1-c1ncc(C)s1 [Example 143.0, 2-(4-chlorophenyl)-N-(4-(2,6-dimethoxyphenyl)-5-(5-methylthiazol-2-yl)-4H-1,2,4-triazol-3-yl)ethanesulfonamide] | 236 nM
2 | Cc1cnc([C@H](OC(C)C)[C@H](C)S(=O)(=O)Nc2nnc(-c3ccn(C)n3)n2-c2c(F)cccc2F)nc1 [Example 227.0, (1S,2S)-N-(4-(2,6-difluorophenyl)-5-(1-methyl-1H-pyrazol-3-yl)-4H-1,2,4-triazol-3-yl)-1-(1-methylethoxy)-1-(5-methyl-2-pyrimidinyl)-2-propanesulfonamide] | 1.6 nM
3 | COc1cnc([C@@H](C)[C@@H](C)S(=O)(=O)Nc2nnc(-c3ccn(C)n3)n2-c2c(OC)ncnc2OC)nc1 [Example 298.0] | 1 nM
4 | CCc1nc(-c2nnc(NS(=O)(=O)CCc3ccc(F)cc3C#N)n2-c2c(OC)cccc2OC)cs1 [Example 154.0, 2-(2-cyano-4-fluorophenyl)-N-(4-(2,6-dimethoxyphenyl)-5-(2-ethylthiazol-4-yl)-4H-1,2,4-triazol-3-yl)ethanesulfonamide] | 62 nM
5 | CO[C@H](c1cnc(C)cn1)[C@H](C)S(=O)(=O)Nc1nnc(-c2ccn(C)n2)n1-c1c(F)cccc1F [Example 232.0, (1R,2S)-N-(4-(2,6-difluorophenyl)-5-(1-methyl-1H-pyrazol-3-yl)-4H-1,2,4-triazol-3-yl)-1-methoxy-1-(5-methyl-2-pyrazinyl)-2-propanesulfonamide] | 54 nM
6 | COc1cccc(OC)c1-n1c(NS(=O)(=O)[C@H](C)Cc2ncc(F)cn2)nnc1-c1nc(C)cs1 [Example 103.0] | 8.4 nM
7 | COc1cccc(OC)c1-n1c(NS(=O)(=O)[C@@H](C)[C@H](OC)c2ncc(C)cn2)nnc1-c1n[nH]c2ccc(F)cc12 [Example 437.0] | 190 nM
8 | COc1cccc(OC)c1-n1c(NS(=O)(=O)[C@@H](C)[C@H](OC)c2ncc(Cl)cn2)nnc1-c1cncc(C)n1 [Example 214.0, (1R,2S)-1-(5-chloro-2-pyrimidinyl)-N-(4-(2,6-dimethoxyphenyl)-5-(6-methyl-2-pyrazinyl)-4H-1,2,4-triazol-3-yl)-1-methoxy-2-propanesulfonamide] | 0.4 nM
9 | COc1cccc(OC)c1-n1c(NS(=O)(=O)[C@H](C)Cc2ncc(F)cn2)nnc1-c1ncccn1 (single isomer, unassigned) [Example 58.0, (R)-N-(4-(2,6-dimethoxyphenyl)-5-(pyrimidin-2-yl)-4H-1,2,4-triazol-3-yl)-1-(5-fluoropyrimidin-2-yl)propane-2-sulfonamide or (S)-N-(4-(2,6-dimethoxyphenyl)-5-(pyrimidin-2-yl)-4H-1,2,4-triazol-3-yl)-1-(5-fluoropyrimidin-2-yl)propane-2-sulfonamide] | 17 nM
10 | CCS(=O)(=O)Nc1nnc(-c2cc([C@@H](O)c3ccc(Cl)cc3S(C)(=O)=O)n(C)n2)n1-c1c(OC)cccc1OC [Example 382.0, N-(5-(5-((R)-(4-Chloro-2-(methylsulfonyl)phenyl)(hydroxy)methyl)-1-methyl-1H-pyrazol-3-yl)-4-(2,6-dimethoxyphenyl)-4H-1,2,4-triazol-3-yl)ethanesulfonamide and N-(5-(5-((S)-(4-chloro-2-(methylsulfonyl)phenyl)(hydroxy)methyl)-1-methyl-H-pyrazol-3-yl)-4-(2,6-dimethoxyphenyl)-4H-1,2,4-triazol-3-yl)ethanesulfonamide] | 260 nM
11 | COc1ncnc(OC)c1-n1c(NS(=O)(=O)[C@@H](C)[C@H](OC)c2ccc(Cl)cn2)nnc1-c1ccn(C)n1 (single isomer, unassigned) [Example 288.0] | 1.3 nM
12 | COc1ccc(C(=O)O)cc1-n1c(NS(=O)(=O)CCc2ccc(Cl)cc2)nnc1-c1cccs1 [Example 245.0, 3-(3-(2-(4-chlorophenyl)ethylsulfonamido)-5-(thiophen-2-yl)-4H-1,2,4-triazol-4-yl)-4-methoxybenzoic acid] | 210 nM
13 | C=CCO[C@@H](c1ncc(F)cn1)[C@@H](C)S(=O)(=O)Nc1nnc(-c2nc(C)cs2)n1-c1c(OC)cccc1OC (single isomer, unassigned) [Example 169.0, (1S,2R)-1-(Allyloxy)-N-(4-(2,6-dimethoxyphenyl)-5-(4-methylthiazol-2-yl)-4H-1,2,4-triazol-3-yl)-1-(5-fluoropyrimidin-2-yl)propane-2-sulfonamide or (1R,2S)-1-(allyloxy)-N-(4-(2,6-dimethoxyphenyl)-5-(4-methylthiazol-2-yl)-4H-1,2,4-triazol-3-yl)-1-(5-fluoropyrimidin-2-yl)propane-2-sulfonamide] | 0.46 nM
14 | COc1cccc(OC)c1-n1c(NS(=O)(=O)[C@@H](C)[C@H](OC)c2ncc(C)cn2)nnc1-c1cc(C)on1 [Example 425.0, (1R,25)-N-(4-(2,6-dimethoxyphenyl)-5-(5-methylisoxazol-3-yl)-4H-1,2,4-triazol-3-yl)-1-sulfonamide] | 8.1 nM
15 | COc1cccc(OC)c1-n1c(NS(=O)(=O)[C@@H](C)[C@H](C)c2ncc(Cl)cn2)nnc1-c1n[nH]c2c1CCCC2 [Example 438.0, (2S,3R)-3-(5-chloropyrimidin-2-yl)-N-(4-(2,6-dimethoxyphenyl)-5-(4,5,6,7-tetrahydro-1H-indazol-3-yl)-4H-1,2,4-triazol-3-yl)butane-2-sulfonamide] | 9.1 nM
16 | COc1cccc(OC)c1-n1c(NS(=O)(=O)CCc2ccc(Cl)cc2)nnc1-c1nc(C)cs1 [Example 142.0, 2-(4-chlorophenyl)-N-(4-(2,6-dimethoxyphenyl)-5-(4-methylthiazol-2-yl)-4H-1,2,4-triazol-3-yl)ethanesulfonamide] | 17 nM
17 | COc1cccc(OC)c1-n1c(NS(=O)(=O)[C@@H](C)[C@H](C)c2ncc(C#N)cn2)nnc1-c1cc2n(n1)CCC2 [Example 225.0] | 2 nM
18 | CO[C@H](c1ncc(Cl)cn1)[C@H](C)S(=O)(=O)Nc1nnc(-c2noc3ccccc23)n1C1CC1 [Example 506.0, (1R,2S)-N-(5-(benzo[d]isoxazol-3-yl)-4-cyclopropyl-4H-1,2,4-triazol-3-yl)-1-(5-chloropyrimidin-2-yl)-1-methoxypropane-2-sulfonamide] | 260 nM
19 | COc1cncc(-c2nnc(NS(=O)(=O)[C@@H](C)[C@H](C)c3ncc(C)cn3)n2-c2c(OC)cccc2OC)n1 [Example 202.0, (2S,3R)-N-(4-(2,6-dimethoxyphenyl)-5-(6-methoxy-2-pyrazinyl)-4H-1,2,4-triazol-3-yl)-3-(5-methyl-2-pyrimidinyl)-2-butanesulfonamide] | 2.9 nM
20 | COc1cnc([C@@H](C)[C@H](C)S(=O)(=O)Nc2nnc(-c3cnn4c3CCC4)n2-c2c(OC)cccc2OC)cn1 [Example 486.0, (2S,3R)-N-(5-(5,6-dihydro-4H-pyrrolo[1,2-b]pyrazo1-3-yl)-4-(2,6-dimethoxyphenyl)-4H-1,2,4-triazol-3-yl)-3-(5-methoxypyrazin-2-yl)butane-2-sulfonamide] | 0.29 nM
21 | COc1cccc(OC)c1-n1c(NS(=O)(=O)[C@@H](C)[C@H](OC)c2ncc(C)cn2)nnc1-c1cc2n(n1)CCC2 [Example 205.0, (1R,2S)-N-(5-(5,6-dihydro-4H-pyrrolo[1,2-b]pyrazol-2-yl)-4-(2,6-dimethoxyphenyl)-4H-1,2,4-triazol-3-yl)-1-methoxy-1-(5-methyl-2-pyrimidinyl)-2-propanesulfonamide] | 3 nM
22 | CCn1ccc(-c2nnc(NS(=O)(=O)[C@@H](C)[C@H](C)c3ncc(C)cn3)n2-c2c(OC)cccc2OC)n1 [Example 389.0, (2S,3R)-N-(4-(2,6-Dimethoxyphenyl)-5-(1-ethyl-1H-pyrazol-3-yl)-4H-1,2,4-triazol-3-yl)-3-(5-methylpyrimidin-2-yl)butane-2-sulfonamide] | 0.34 nM
23 | COc1ncnc(OC)c1-n1c(NS(=O)(=O)[C@@H](C)[C@H](C)c2ncc(Cl)cn2)nnc1-c1nn(C)c2ccc(C)cc12 [Example 433.0, (2S,3R)-3-(5-chloropyrimidin-2-yl)-N-(4-(4,6-dimethoxypyrimidin-5-yl)-5-(1,5-dimethyl-1H-indazol-3-yl)-4H-1,2,4-triazol-3-yl)butane-2-sulfonamide] | 0.84 nM
24 | COc1cccc(OC)c1-n1c(NS(=O)(=O)[C@@H](C)[C@H](OC)c2ncc(C)cn2)nnc1-c1cnn2ccccc12 [Example 415.0, (1R,2S)-N-(4-(2,6-dimethoxyphenyl)-5-(pyrazolo[1,5-a]pyridin-3-yl)-4H-1,2,4-triazo1-3-yl)-1-methoxy-1-(5-methylpyrimidin-2-yl)propane-2-sulfonamide] | 5.2 nM
25 | COc1ccc(N(C)C)cc1-n1c(NS(=O)(=O)CCc2ccc(Cl)cc2)nnc1-c1cccs1 [Example 252.0, 2-(4-chlorophenyl)-N-(4-(5-(dimethylamino)-2-methoxyphenyl)-5-(2-thiophenyl)-4H-1,2,4-triazol-3-yl)ethanesulfonamide] | 11 nM
26 | COCC1(n2c(NS(=O)(=O)[C@@H](C)[C@H](OC)c3ncc(Cl)cn3)nnc2-c2noc3ccccc23)CC1 [Example 505.0, (1R,2S)-N-(5-(1,2-benzoxazol-3-yl)-4-(1-(methoxymethyl)cyclopropyl)-4H-1,2,4-triazol-3-yl)-1-(5-chloro-2-pyrimidinyl)-1-methoxy-2-propanesulfonamide] | 8.5 nM
27 | COc1cccc(OC)c1-n1c(NS(=O)(=O)C[C@H](OC)c2ccc(F)cc2S(C)(=O)=O)nnc1-c1ccn(C)n1 (single isomer, unassigned) [Example 373.0, (R)-N-(4-(2,6-Dimethoxyphenyl)-5-(1-methyl-1H-pyrazol-3-yl)-4H-1,2,4-triazol-3-yl)-2-(4-fluoro-2-(methylsulfonyl)phenyl)-2-methoxyethanesulfonamide or (S)-N-(4-(2,6-dimethoxyphenyl)-5-(1-methyl-1H-pyrazol-3-yl)-4H-1,2,4-triazol-3-yl)-2-(4-fluoro-2-(methylsulfonyl)phenyl)-2-methoxyethanesulfonamide] | 1.3 nM
